# “And” between values parts separate entries of the source, which are not always exact repeats. Equal entries are not always repeated. Where two headings read alike, the source gives them in different places.
# Key:
# [1] = tested on: T11 syngeneic orthotopic breast cancer models; assay: combined cisplatin and radiation efficacy, T11 syngeneic model; type: in vivo, mice; conditions: single dose
# Description: Using T11 syngeneic orthotopic breast cancer models, radiotherapy was tested as an alternative and/or additional treatment method to device and IV cisplatin to compare the therapeutic effects of the various treatments. Mice received a single dose of radiation (10 Gy), device cisplatin, device cisplatin+radiation (10 Gy), IV cisplatin (5 mg/kg), IV cisplatin+radiation (10 Gy), device+IV cisplatin (5 mg/kg), and device cisplatin+IV cisplatin (5 mg/kg)+radiation (10 Gy) five days after inoculation (˜20 mm^3).
# [2] = biodistribution/PK of device and/or IV cisplatin in orthotopic SUM149 cell xenograft model; type: in vivo, mice
# Description: Device delivery of cisplatin was evaluated using an orthotopic SUM149 cell xenograft model of breast cancer. In addition to studying iontophoretic delivery as compared to IV delivery of the cisplatin, concurrent device and IV delivery was added as an arm of the study based upon the low systemic exposure of cisplatin. In the study, a single treatment was administered after adhesion of the device to the skin above the tumor.
# [3] = tested on: SUM149 cell xenograft orthotopic breast cancer model; type: in vivo, mice; conditions: for median lifespan: control median 49 days; for tumor growth inhibition: weekly, four doses
# Description: (§1) Iontophoretic delivery of cisplatin in was tested in both SUM149 cell xenograft and T11 syngeneic orthotopic breast cancer models. For both models, the efficacies of device cisplatin, IV cisplatin, device+IV cisplatin, device saline, and IV saline were compared.
# (§2) For the SUM149 xenograft model, once the tumors reached ˜50 mm^3, the mice were treated with device cisplatin, IV cisplatin (5 mg/kg), device+IV cisplatin (5 mg/kg), device saline, or IV saline every week for four total doses, as shown in FIGS. 35A and 35B. […] For the T11 model, mice received two doses of device cisplatin, IV cisplatin (5 mg/kg), device+IV cisplatin (5 mg/kg), device saline, or IV saline every week for two total doses beginning five days after inoculation (˜20 mm^3), as shown in FIGS. 35C and 35D. The number of treatments varied between tumor models because of the differences in tolerability of treatments.
# [4] = tested on: T11 syngeneic orthotopic breast cancer model; assay: tumor treatment efficacy of cisplatin, T11 syngeneic model; type: in vivo, mice; conditions: for median lifespan: control median 10 days; for tumor growth inhibition: two doses
# Description: as §1, §2
# [5] = ex vivo cisplatin transport into human skin, modified Franz diffusion cell; conditions: 1 mA for 25 minutes, ~1 mm thick skin, ICP-MS
# Description: Ex vivo drug transport studies were also conducted by transporting cisplatin into ˜1 mm thick human skin and were evaluated using a modified Franz diffusion cell with the test drug transport device directly above the skin instead of a donor chamber. During the testing, 1 or 0 mA of current was applied for 25 minutes, and the skin and solution were snap frozen, processed, and analyzed by inductively coupled plasma-mass spectrometry (ICP-MS).
# [6] = PK study of device versus IV gemcitabine in non-tumor bearing dogs; type: in vivo
# Description: Since there was no readily available large animal model for pancreatic cancer, a representative non-tumor bearing large animal model (Dogs) for humans was used. A laparotomy was performed and iontophoretic devices (shown in FIG. 41) were sutured directly onto the pancreas. A constant current of 10 mA was applied for 60 minutes using either 40 or 10 mg/mL gemcitabine (n=5, per group). […] For the IV treatment arm (n=4, per group), clinical protocol was followed for gemcitabine administration, which was an infusion of a 1 g/m^2 dose for thirty minutes, and the animal was euthanized 60 minutes after the start of the infusion. The plasma was sampled at 15 minute increments before, during, and after therapy. After therapy, the tissues were removed, flash-frozen, and analyzed by UV-HPLC.
# [7] = ex vivo drug transport in pancreatic cancer PDX tumors; type: in vitro ADME; conditions: 2 mA for 10 minutes, device sutured onto ex vivo PDX tumor, UV-HPLC
# Description: Ex vivo drug transport studies were conducted using pancreatic cancer patient-derived xenografts (PDXs). Test drug transport devices were sutured onto the ex vivo PDX tumors and a counter electrode was placed on the contralateral side of the tumor. 2 or 0 mA of current was applied for 10 minutes and the tumors were subsequently snap frozen, processed, and analyzed by UV-high performance liquid chromatography (HPLC).
# [8] = tested on: orthotopic PDX model of pancreatic cancer; conditions: for mice with tumor regression: twice a week up to 7 weeks
# Description: Iontophoretic devices were surgically implanted into orthotopic PDX tumors when their size reached ˜200 mm^3, as determined by high resolution 3D ultrasound. Mice were treated twice a week for up to 7 weeks with device gemcitabine (20 mg/mL), device saline (0.9% NaCl), IV Gemcitabine (80 mg/kg), or IV saline. Tumor volumes were measured by volume displacement after completion of the scheduled treatment due to the interference of implanted devices with ultrasound imaging.
# in vivo = conditions: mouse
# Source text: Orthotopic PDX models of pancreatic cancer were used to characterize iontophoretic delivery of gemcitabine with respect to pharmacokinetics (PK).
# In the present example, IV delivery of gemcitabine was compared to local iontophoretic delivery of gemcitabine.
# [9] = device+IV cisplatin (5 mg/kg) + radiation (10 Gy)
compound,measurement,setting,value
[NH2][Pt]([NH2])([Cl])[Cl] [cisplatin],survival on addition of radiation,[1]; IV cisplatin (5 mg/kg) + radiation (10 Gy),significantly improved survival
same,survival on addition of radiation,[1]; device cisplatin + radiation (10 Gy),significantly improved survival
same,survival on addition of radiation,[1]; [9],significantly improved survival
same,tumor growth inhibition and survival versus other groups,[1]; [9],outperformed all other treatment groups
same,Platinum Plasma Exposure (AUC),[2]; Device + IV (5 mg/kg) Delivery,10650 ng·h/mL
same,Platinum Plasma Exposure (AUC),"[2]; Device Delivery, single treatment",1990 ng·h/mL
same,Platinum Plasma Exposure (AUC),[2]; IV (5 mg/kg) Delivery,9910 ng·h/mL
same,median lifespan,[3]; IV cisplatin (5 mg/kg),68 days
same,"tumor γH2AX staining, device cisplatin versus IV cisplatin","[3]; device cisplatin, tumors post treatment",almost equivalent γH2AX staining
same,tumor growth inhibition,"[3]; device cisplatin, similar to IV cisplatin until day 42",significant tumor growth inhibition
same,median lifespan,[3]; device cisplatin,60 days
same,tumor growth inhibition,[3]; device+IV cisplatin (5 mg/kg),significant tumor growth inhibition
same,median lifespan,[3]; device+IV cisplatin (5 mg/kg),> 100 days
same,tumor γH2AX staining,"[3]; device+IV cisplatin, tumors post treatment",greater γH2AX staining
same,skin of the mice after device treatment,"[3]; mouse, in vivo",no scarring or deformation
same,tolerability by kidney γH2AX staining compared to IV cisplatin and device+IV cisplatin,"[3]; mouse, in vivo",better tolerated
same,median lifespan,[4]; IV cisplatin (5 mg/kg),22 days
same,tumor growth inhibition,"[4]; device cisplatin, similar to IV cisplatin until day 9",significant tumor growth inhibition
same,median lifespan,[4]; device cisplatin,20 days
same,tumor growth inhibition,[4]; device+IV cisplatin (5 mg/kg),significant tumor growth inhibition
same,median lifespan,[4]; device+IV cisplatin (5 mg/kg),32 days
same,fold increase in platinum transported into the human skin versus passive diffusion (0 mA),[5],11.4 fold
Nc1ccn([C@@H]2O[C@H](CO)[C@@H](O)C2(F)F)c(=O)n1 [gemcitabine],gemcitabine in plasma,[6]; IV infusion 1 g/m^2 for thirty minutes,detected in the plasma of all dogs
same,distance of gemcitabine transport away from the electrode,"[6]; device, 10 mg/mL",6.3 mm
same,fold increase in concentration of gemcitabine in the normal canine pancreas compared to IV administration,"[6]; device, 10 mg/mL",2.0 fold
same,drug in plasma,"[6]; device, 10 mg/mL, 10 mA for 60 minutes",no drug detected
same,distance of gemcitabine transport away from the electrode,"[6]; device, 40 mg/mL",9.6 mm
same,fold increase in concentration of gemcitabine in the normal canine pancreas compared to IV administration,"[6]; device, 40 mg/mL",7.1 fold
same,dogs with detectable levels of gemcitabine in plasma,"[6]; device, 40 mg/mL, 10 mA for 60 minutes",2 out of 5
same,fold lower plasma gemcitabine levels than the IV treatment,"[6]; device, 40 mg/mL, dogs with detectable levels",at least 25 fold
same,fold increase in drug transport versus passive diffusion control (0 mA),[7],9.1 fold
same,mean log2-fold change in tumor volume,[8]; IV gemcitabine (80 mg/kg),1.1
same,mice with tumor regression,[8]; IV gemcitabine (80 mg/kg),0/7
same,Ki-67 staining of tumors post treatment versus IV gemcitabine and saline arms,[8]; device gemcitabine,decrease in Ki-67 staining
same,mean log2-fold change in tumor volume,[8]; device gemcitabine (20 mg/mL),−0.8
same,mice with tumor regression,"[8]; device gemcitabine (20 mg/mL), 52-day study",7 out of 7 and 7/7
same,"tolerability (body weight gain, alanine transaminase, lipase) compared to IV gemcitabine","[8]; mouse, in vivo",better tolerated
same,gemcitabine in plasma,in vivo,no detectable gemcitabine
same,gemcitabine tumor AUC,in vivo,348070 ng·h/mL
same,distance away from the devices at which gemcitabine was detected,in vivo; 0 h,4.7 mm
same,distance away from the devices at which gemcitabine was detected,in vivo; 3 h,3 mm
same,distance away from the devices at which gemcitabine was detected,in vivo; 6 h,3 mm
same,AUC,"in vivo; iv, 80 mg/kg",65200 ng·h/mL
same,gemcitabine tumor AUC,"in vivo; iv, 80 mg/kg",30780 ng·h/mL

# From patent US11351399B2, “Combined local delivery of therapeutic agents using interventional devices and radiation” (The University of North Carolina At Chapel Hill, priority 2014, dated 2022)
